Read-outs that look alike come from different tables or passages of the source.

This note sets out measurements from patent US20040173696A1, “Milling microgram quantities of nanoparticulate candidate compounds” (Elan Pharma International Ltd., priority 2002, published 2004).

The conditions of data set [1]: 24-well, 48 hours. As for the experimental part: In this example 0.8 mm media was used.
Naproxen and hydroxypropyllcellulose (HPC-SL) as a surface stabilizer were combined at a drug:stabilizer ratio of 4:1. Samples of the composition and grinding media, as shown in the table below, were added to the wells of a 24-well microplate One well was used for each condition. The microplate was then agitated at the maximum sustainable speed using an orbital shaking platform driven by a standard laboratory magnetic stirring device. After 48 hours the average particle size of naproxen was estimated by light microscopy.

The conditions of data set [2]: 48-well, 0.5 g 0.8 mm media, 0.125 ml slurry, HPC-SL 4:1, 48 hours. The protocol:
Naproxen and hydroxypropyllcellulose (HPC-SL) as a surface stabilizer were combined at a drug:stabilizer ratio of 4:1. Samples of the composition and grinding media, as shown in the table below, were added to the wells of a 48-well microplate. One well was used for each condition. The microplate was then agitated at the maximum sustainable speed using an orbital shaking platform driven by a standard laboratory magnetic stirring device. After 48 hours, the average particle size of naproxen was estimated by light microscopy.

In the case of `COc1ccc2cc([C@H](C)C(=O)O)ccc2c1` [Naproxen], the “Average Particle Size of Naproxen” value was <1 μm, in data set [1] (0.25 mg drug, 1 g 0.8 mm media, 0.25 ml slurry, HPC-SL 4:1); <1 μm, in data set [1] (0.5 mg drug, 2 g 0.8 mm media, 0.5 ml slurry, HPC-SL 4:1); <1 μm, in data set [1] (1.25 mg drug, 1 g 0.8 mm media, 0.25 ml slurry, HPC-SL 4:1); less than 0.5 μm in data set [1] (2.5 mg drug, 1 g 0.8 mm media, 0.25 ml slurry, HPC-SL 4:1); less than 0.5 μm in data set [1] (5 mg drug, 1 g 0.8 mm media, 0.25 ml slurry, HPC-SL 4:1); less than 0.5 μm in data set [1] (10 mg drug, 2 g 0.8 mm media, 0.5 ml slurry, HPC-SL drug:stabilizer 4:1). The “Average Particle Size” value is less than 1 μm in data set [2] (0.125 mg drug), less than 1 μm in data set [2] (0.625 mg drug), less than 0.5 μm in data set [2] (1.25 mg drug) and less than 0.5 μm in data set [2] (2.5 mg drug).
